The text below walks through data of ChEMBL document CHEMBL1201862, “PubChem BioAssay data set” (2004).

Some test systems named below: BT-549; SK-MEL-5; HOP-92; NCI-H226; MDA-MB-231; HT-29; HCT-15; NCI-H23; Hs-578T; KM12; DU-145; SNB-19; UACC-257; SF-539; SK-MEL-28; SK-MEL-2; RPMI-8226; HL-60; SR.
What all share (assay): NCI-60 cell line screen, 48 h

SMILES strings stand for the structures.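 Step 1: Grow cells in 96-well plates. Step 2: Expose to compound for 48 hours at 5 concentrations. Step 3: Interpolate endpoints linearly; if unreached, use highest concentration. GI50 is the concentration that inhibits growth by half.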 Calls of active or inactive are those of the source. Rule as the data show it: active = GI50 up to about 1.1 µM and inactive = higher. A value given as a limit tells only on which side of the number the result lay.

With `O=C(Cc1ccccc1)NN1C(=O)/C(=C\c2ccccc2)S/C1=N\c1ccccc1`, the GI50 with BT-549, in the experiment with SK-MEL-5, in the experiment with HOP-92, in the experiment on NCI-H226, in the experiment with MDA-MB-231 and with HT-29 was > 100 µM (inactive) throughout. Also, the GI50 in the experiment with HCT-15 was > 100 µM; with NCI-H23, > 100 µM (inactive); with Hs-578T it was > 100 µM (inactive); in the experiment with KM12, > 100 µM (inactive); in the experiment with DU-145, > 100 µM (inactive); in the experiment with SNB-19, > 100 µM (inactive). Besides, the GI50 with UACC-257, with SF-539, in the experiment with SK-MEL-28 and in the experiment on SK-MEL-2 was > 100 µM (inactive) throughout.
For the molecule `C/C(=N\Nc1nc2ccccc2o1)c1cc(C)ncn1`, the GI50 is 0.0306 µM (active) in the experiment with RPMI-8226; < 0.01 µM (active) in the experiment on HL-60; 0.305 µM (active) in the experiment with BT-549; 0.124 µM (active) with SR; 0.0381 µM (active) with SK-MEL-5; < 0.0142 µM (active) with NCI-H226. Also, the GI50 is < 0.0203 µM (active) in the experiment with MDA-MB-231; < 0.01 µM (active) with HT-29; 0.043 µM in the experiment on HCT-15; 0.102 µM (active) in the experiment with NCI-H23; 0.231 µM (active) in the experiment with Hs-578T; 0.0851 µM (active) in the experiment with KM12. Moreover, the GI50 is 0.171 µM (active) in the experiment on DU-145; 0.405 µM (active) with SNB-19; < 0.0211 µM (active) in the experiment on UACC-257; 0.107 µM (active) in the experiment with SF-539; 4 µM (inactive) in the experiment with SK-MEL-28; 1.38 µM (inactive) in the experiment with SK-MEL-2.
As to `Cc1cc(-c2[nH]c(C(=O)O)cc2I)on1`, the GI50 in the experiment on RPMI-8226 was > 100 µM (inactive); in the experiment on BT-549, 66.1 µM (inactive); in the experiment with SK-MEL-5, > 100 µM (inactive); in the experiment on HOP-92 it was 9.33 µM (inactive); in the experiment on MDA-MB-231 it was 75.2 µM (inactive); in the experiment on HT-29 it was > 100 µM (inactive). For the same molecule, the GI50 with HCT-15 is > 100 µM; in the experiment with NCI-H23 it was 51.2 µM (inactive); with Hs-578T, 67.9 µM (inactive); in the experiment on KM12, > 100 µM (inactive); in the experiment with DU-145, > 100 µM (inactive); in the experiment on SNB-19 it was 31 µM (inactive). In addition, the GI50 in the experiment on UACC-257, in the experiment with SK-MEL-28 and with SK-MEL-2 was > 100 µM (inactive) in each case.
As to `Cc1cccc2c(N)c3cccc(C(=O)NCCN(C)C)c3nc12`, the GI50 in the experiment on RPMI-8226 was < 0.021 µM (active); with HL-60, < 0.01 µM (active); in the experiment with BT-549, 1.41 µM (inactive); in the experiment on SR, < 0.01 µM (active); in the experiment with SK-MEL-5 it was 0.114 µM (active); with MDA-MB-231, 0.0538 µM (active). In addition, the GI50 was < 0.0236 µM (active) in the experiment with HT-29; < 0.0154 µM in the experiment on HCT-15; < 0.0259 µM (active) in the experiment on NCI-H23; 0.207 µM (active) in the experiment with Hs-578T; 0.0188 µM (active) in the experiment on DU-145; 0.193 µM (active) in the experiment on UACC-257. Besides, the GI50 was 0.193 µM (active) in the experiment on SK-MEL-28 and 0.231 µM (active) with SK-MEL-2.
As for `COCOc1cc(OC)ccc1C=O`, the GI50 in the experiment on HL-60 was 26.7 µM (inactive); in the experiment on BT-549 it was 58.1 µM (inactive); in the experiment on SR it was 11.3 µM (inactive); with SK-MEL-5 it was 27.4 µM (inactive); in the experiment with NCI-H226, 40.8 µM (inactive); with MDA-MB-231, 51.3 µM (inactive). In addition, the GI50 is 25.6 µM (inactive) in the experiment with HT-29; 36.4 µM in the experiment on HCT-15; 35.6 µM (inactive) with NCI-H23; 14.8 µM (inactive) with Hs-578T; 34 µM (inactive) in the experiment with KM12; 53.3 µM (inactive) in the experiment with DU-145. The GI50 in the experiment on SNB-19 is 46.1 µM (inactive); with UACC-257, 28.6 µM (inactive); in the experiment on SF-539 it was 21.5 µM (inactive); in the experiment with SK-MEL-28, > 100 µM (inactive); in the experiment with SK-MEL-2, 34 µM (inactive).
`COC(=O)c1c(C)cccc1C1CN=NC12Cc1cc(C)cc(C)c1C2=O` (stereo not given): the GI50 in the experiment on HL-60 was 20 µM (inactive); in the experiment on BT-549, 29.7 µM (inactive); in the experiment with SK-MEL-5 it was 19.2 µM (inactive); with HOP-92, 20.4 µM (inactive); with NCI-H226 it was 58.5 µM (inactive); with MDA-MB-231, 12.4 µM (inactive). Moreover, the GI50 was 21.5 µM (inactive) in the experiment with HT-29; 30.5 µM in the experiment on HCT-15; 20.7 µM (inactive) in the experiment on NCI-H23; 73.1 µM (inactive) with Hs-578T; 31.4 µM (inactive) in the experiment with KM12; 84.7 µM (inactive) in the experiment on DU-145. Further, the GI50 in the experiment with SNB-19 is 73.3 µM (inactive); in the experiment on UACC-257, 22.9 µM (inactive); in the experiment with SF-539 it was 41.3 µM (inactive); with SK-MEL-28, 76.4 µM (inactive); in the experiment on SK-MEL-2, 27.7 µM (inactive).
On to `CCOc1cn(C2CC(O)C(CO)O2)c(=O)[nH]c1=O` (stereo not given), for which the GI50 with RPMI-8226, with HL-60, in the experiment with BT-549, in the experiment on SK-MEL-5, in the experiment with HOP-92 and in the experiment with NCI-H226 was > 100 µM (inactive) in each case. Moreover, the GI50 in the experiment on MDA-MB-231 was > 100 µM (inactive); with HT-29, > 100 µM (inactive); in the experiment with HCT-15, > 100 µM; in the experiment on NCI-H23, > 100 µM (inactive); in the experiment with Hs-578T, > 100 µM (inactive); in the experiment on KM12 it was > 100 µM (inactive). Further, the GI50 in the experiment with DU-145, with SNB-19, in the experiment on UACC-257, in the experiment with SK-MEL-28 and with SK-MEL-2 was > 100 µM (inactive) each time.
In the case of `CCCCNc1c(CN)cnc2cc(Cl)ccc12`, the GI50 in the experiment on RPMI-8226 was 16.4 µM (inactive); in the experiment with HL-60 it was 0.394 µM (active); with BT-549, 16.6 µM (inactive); in the experiment with SK-MEL-5, 15.1 µM (inactive); in the experiment on HOP-92 it was 15.9 µM (inactive); with NCI-H226, 16.1 µM (inactive). Further, the GI50 in the experiment with MDA-MB-231 was 15.3 µM (inactive); in the experiment with HT-29, 16.9 µM (inactive); in the experiment with HCT-15 it was 17.1 µM; in the experiment on NCI-H23 it was 19.3 µM (inactive); in the experiment on Hs-578T, 17.6 µM (inactive); with KM12 it was 15.5 µM (inactive). Also, the GI50 in the experiment with DU-145 was 28.1 µM (inactive); in the experiment on SNB-19, 22.9 µM (inactive); in the experiment on UACC-257, 13 µM (inactive); with SK-MEL-28, 15.6 µM (inactive); in the experiment on SK-MEL-2, 17.8 µM (inactive).
For the molecule `CSc1c(C(=O)Nc2ccc(C)cc2)c(N)n(N)c(=O)c1C#N`, the GI50 in the experiment on RPMI-8226, with HL-60, in the experiment on BT-549, in the experiment on SR, in the experiment with SK-MEL-5 and in the experiment with NCI-H226 was > 100 µM (inactive) each time. Besides, the GI50 was > 100 µM (inactive) in the experiment on MDA-MB-231; > 100 µM (inactive) in the experiment on HT-29; > 100 µM with HCT-15; > 100 µM (inactive) in the experiment on NCI-H23; > 100 µM (inactive) in the experiment with Hs-578T; > 100 µM (inactive) in the experiment with KM12. Also, the GI50 in the experiment with DU-145, in the experiment on SNB-19, in the experiment with UACC-257, with SF-539, in the experiment on SK-MEL-28 and with SK-MEL-2 was > 100 µM (inactive) throughout.
For `COC(=O)Cc1c([C@H]2[C@H](CC(=O)OC)c3ccccc3N2C(C)=O)[nH]c2ccccc12`, the GI50 in the experiment with RPMI-8226 is 33.6 µM (inactive); in the experiment with HL-60, 85.3 µM (inactive); in the experiment on BT-549, 67.6 µM (inactive); in the experiment with SK-MEL-5, > 100 µM (inactive); with HOP-92, > 100 µM (inactive); in the experiment on NCI-H226 it was > 100 µM (inactive). Further, the GI50 is > 100 µM (inactive) in the experiment on MDA-MB-231; > 100 µM (inactive) with HT-29; 64.3 µM in the experiment on HCT-15; 50.9 µM (inactive) in the experiment on NCI-H23; > 100 µM (inactive) with Hs-578T; > 100 µM (inactive) with KM12. Further, the GI50 with DU-145, in the experiment with SNB-19, in the experiment on UACC-257, in the experiment with SF-539, in the experiment with SK-MEL-28 and in the experiment on SK-MEL-2 was > 100 µM (inactive) each time.
Take `Cc1cc(C)c(/N=N/c2c(O)c(S(=O)(=O)O)cc3cc(S(=O)(=O)O)ccc23)cc1C`: the GI50 in the experiment with RPMI-8226, in the experiment with BT-549, in the experiment with SK-MEL-5, with HOP-92, with NCI-H226 and in the experiment with MDA-MB-231 was > 100 µM (inactive) each time. Moreover, the GI50 in the experiment on HT-29 is > 100 µM (inactive); with HCT-15, > 100 µM; in the experiment on NCI-H23, > 100 µM (inactive); with Hs-578T it was > 100 µM (inactive); in the experiment with KM12 it was > 100 µM (inactive); in the experiment with DU-145, > 100 µM (inactive). Also, the GI50 in the experiment with SNB-19, with UACC-257, with SK-MEL-28 and with SK-MEL-2 was > 100 µM (inactive) each time.
On to `COc1cc(Nc2nc3cc(C(F)(F)F)ccc3nc2C(=O)O)cc(OC)c1OC`, for which the GI50 in the experiment on HL-60 is 55.2 µM (inactive); with BT-549 it was 34.9 µM (inactive); with SK-MEL-5, 49 µM (inactive); in the experiment on HOP-92 it was 29.6 µM (inactive); in the experiment on NCI-H226, 32.9 µM (inactive); in the experiment on MDA-MB-231, 21.8 µM (inactive). Moreover, the GI50 with HT-29 is 49.7 µM (inactive); with HCT-15 it was 39.6 µM; with NCI-H23, 45.1 µM (inactive); with Hs-578T it was 31.7 µM (inactive); in the experiment with KM12, 41.5 µM (inactive); in the experiment on DU-145, 35.1 µM (inactive). In addition, the GI50 in the experiment with SNB-19 was 41.5 µM (inactive); in the experiment with UACC-257 it was > 100 µM (inactive); with SF-539, 43.6 µM (inactive); with SK-MEL-28 it was 69.2 µM (inactive); with SK-MEL-2 it was 19.1 µM (inactive).
